Earlier results, collected in patent US8106000B2, “Colonic delivery of adsorbents” (Da Volterra, priority 2005, dated 2012).

Conditions: oral doses 1 to […]

expected residual ciprofloxacin in feces (% of oral doses): ≤ 25%
Compound: O=C(O)c1cn(C2CC2)c2cc(N3CCNCC3)c(F)cc2c1=O [ciprofloxacin]
